Measured values as given in patent publication US5840936A, “Aminosterol compounds useful as inhibitors of the sodium/proton exchanger (NHE)” (priority 1995, dated 1998).
“Also recorded” adds a separate entry of the source.

Tests used:
[1] = Mouse IV PK study; conditions: in vivo
Procedure: To assess clearance, a mouse IV PK study was performed for compound 319 and squalamine. The compound was administered i.v. and blood samples were taken every 10 minutes. The concentration of the administered steroid was determined by HPLC analysis.

[2] = biological target: rabbit NHE3 (Oryctolagus cuniculus, UniProt P26432); assay: NHE3 inhibition, internal pH (BCECF-AM) in transfected PS120 fibroblasts
Sequence of rabbit NHE3 (P26432 30-832): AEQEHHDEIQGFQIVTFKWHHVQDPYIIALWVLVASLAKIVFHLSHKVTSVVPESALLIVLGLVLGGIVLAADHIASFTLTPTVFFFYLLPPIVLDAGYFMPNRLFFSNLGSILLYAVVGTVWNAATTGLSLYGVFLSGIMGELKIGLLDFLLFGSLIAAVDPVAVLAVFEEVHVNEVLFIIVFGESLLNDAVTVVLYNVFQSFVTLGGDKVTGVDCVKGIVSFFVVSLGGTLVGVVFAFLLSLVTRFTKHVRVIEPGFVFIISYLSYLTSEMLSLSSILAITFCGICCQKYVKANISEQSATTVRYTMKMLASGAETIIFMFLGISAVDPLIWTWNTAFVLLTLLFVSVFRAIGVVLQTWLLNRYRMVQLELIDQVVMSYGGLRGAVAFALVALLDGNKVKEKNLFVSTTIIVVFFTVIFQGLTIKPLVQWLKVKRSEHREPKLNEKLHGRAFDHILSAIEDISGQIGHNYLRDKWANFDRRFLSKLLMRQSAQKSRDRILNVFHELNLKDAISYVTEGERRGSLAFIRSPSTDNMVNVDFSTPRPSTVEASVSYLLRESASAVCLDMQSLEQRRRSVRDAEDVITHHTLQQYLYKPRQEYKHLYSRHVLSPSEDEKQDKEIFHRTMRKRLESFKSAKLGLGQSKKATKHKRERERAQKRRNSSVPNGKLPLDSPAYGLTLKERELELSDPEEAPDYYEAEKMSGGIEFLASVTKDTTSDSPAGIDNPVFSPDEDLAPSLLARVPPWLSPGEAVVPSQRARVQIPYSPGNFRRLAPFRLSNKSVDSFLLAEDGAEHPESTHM
Procedure: Internal pH was measured either following acid loading or in the absence of an acid-loading challenge, with the results shown in FIGS. 1A and 1B.
Specifically, PS120 fibroblasts transfected with rabbit NHE3 were grown in supplemented Dulbecco's-modified Eagle's medium as described by Levine et al., J. Biol. Chem. 268, 1993, 25527-25535. […] For cells not acid-preloaded, the actual internal pH value was monitored as a function of time following addition of squalamine, with the results depicted in FIG. 1B.
PS120 fibroblasts transfected with rabbit NHE3 were grown and acid preloaded by exposure to 40 mM NH4 Cl as described above in conjunction with FIGS. 1A and 1B. Internal cellular pH changes expressed as the rate of pH recovery as a function of restored extracellular sodium ion concentration following exposure to 10 μg/ml of the compound were assayed with the fluorescent dye BCECF-AM as described above.

[3] = test system: Xenopus tadpoles, stage 59-60; assay: Xenopus tadpole assay; conditions: 10 μg/ml
[4] = test system: chick embryo vitelline capillaries; assay: Chick embryo vitelline capillary regression assay; type: in vivo; parameters: key to Vitelline capillary regression: +: Vascular reactivity; 0: No vascular reactivity; +/-: Equivocal reactivity
Procedure: Using the chick embryo vitelline capillaries assay, compounds were tested for their ability to induce capillary regression. Each compound was applied in 0.1 ml of 15% Ficol 400 and PBS onto the embryo, and vascular regression was assessed after 60 minutes.
The 3-day chick embryo consists of an embryonic disc from which numerous vessels emerge and return, forming a "FIG. 8"-shaped structure--the embryo in the center with vascular loops extending outward over both poles. […] Following a lag period of around 15 minutes, the constriction of continuity between capillary and secondary vessels, generally on the "venous" side, was observed. Continued pulsatile blood flow progressed, resulting in a "swelling" of the blind tube, followed by a pinching off of the remaining connection and formation of an enclosed vascular sac resembling a "blood island." This process progressed until only the largest vessels remained intact.

[5] = test system: B16 melanoma; assay: Suppression of B16 melanoma growth in C57B mice; type: in vivo, mouse
Procedure: The growth of B16 melanoma in C57B mice is dependent upon neovascularization.
Using the growth of B16 melanoma cells in C57B mice, a recognized model for the evaluation of inhibitors of angiogenesis on the growth of cancers, the effects of subcutaneous, intraperitoneal and oral administration of squalamine were evaluated.
Animals were implanted with B16 melanoma followed by treatment with compound 1436 or 1256 administered in a combined schedule or separately. […] Thus, a combination of these two compounds achieves a theraputic benefit in tumors dependent on neovascularization that may prevent metastatic spread.

[6] = test system: human NHE1; assay: NHE1 inhibition, internal pH in PS120 fibroblasts expressing human NHE1; type: cell-based; conditions: 5 μg/ml squalamine, acid-preloaded
Procedure: (§1) PS120 fibroblasts transfected with rabbit or human NHEl were grown as described above.

[7] = test system: rabbit NHE1; assay: NHE1 inhibition, internal pH in PS120 fibroblasts expressing rabbit NHE1; type: cell-based; conditions: 5 μg/ml squalamine, acid-preloaded
Procedure: as §1

[8] = test system: human foreskin fibroblasts; assay: Growth inhibition of fibroblasts in vitro; type: cell-based; conditions: 10 μg/ml
[9] = test system: human umbilical venous endothelial cells; assay: LPS-induced neutrophil adherence to human umbilical venous endothelial cells; conditions: 10 μg, 1.0 μg, or 0.1 μg; LPS or TNF-α
Procedure: In these experiments, approximately 2×10^5 human umbilical venous cells (passage 2-6) were plated per well. The cells were grown in serum-free media overnight. For induction, either TNF-α (40 ng/ml) was added to endothelial cells for 6 hours prior to adding neutrophils or LPS (100 ng/ml) was added for 4-6 hours. […] After activation of the endothelial cells, approximately 50×10^6 neutrophils were added per well. The plates were gently rocked for 30 minutes at room temperature, followed by removal of the media and washing in serum-free media three times and then photographing of each well. […] A monoclonal Ab to ICAM-1 was a positive control.

[10] = test system: bovine pulmonary endothelial cells; assay: Growth inhibition of endothelial cells in vitro; type: cell-based; conditions: 1 μg/ml
[11] = test system: chick chorioallantoic membrane capillaries; assay: Chorioallantoic membrane (CAM) model, inhibition of capillary growth; type: in vivo; conditions: for Percentage positive, Assay 1 / Percentage positive, Assay 2 / Percentage positive, Mean: 3-day embryo
Source text: The growing capillaries within the chorioallantoic membrane model (CAM model) have been used as a system in which to evaluate the effect of agents on their potential to inhibit new vessel growth. Neovascularization occurs most aggressively over the first week of embryonic development. Thereafter capillary growth is characterized by principally "elongation" rather than "de novo" formation.
In the standard assay, agents are applied locally to a region of the embryo over which neovascularization will occur. Agents are assessed by their ability to inhibit this process, as evaluated by visual examination about 7 days after application. […] The assay utilized is described in detail in Auerbach et al., Pharm. Ther. 51, 1991, 1-11.

[12] = test system: Xenopus tadpoles, stage 59-60; conditions: 10 μg/mL
[13] = test system: human epithelial cell line MCF 10A; assay: Growth inhibition of epithelial cells in vitro; type: cell-based; conditions: 10 μg/ml
[14] = test system: human melanoma 1205Lu; assay: Suppression of human melanoma in RAG-1 mice; type: in vivo
Source text: As apparent from FIG. 5, melanoma 120SLu develops aggressively in RAG-1 mice after implantation.

[15] = test system: human microvascular cells; assay: Inhibition of endothelial cell cord formation in vitro; type: cell-based; conditions: concentrations inhibiting cord formation
Source text: Endothelial cells have the capacity in vitro to form tubular aggregates resembling capillaries in various early stages of formation. This conversion occurs under relatively specific conditions, in which essential growth factors along with an effective substratum are provided. It has been shown that both the interaction of growth factors with the endothelial cell and its attachment to a substratum activate the NHE. The activation of this exchanger is believed to be required for subsequent morphologic transformation of the endothelial cell into a multicellular tubular structure.
To assess the effect of compounds on the cord-like structures formed by human microvascular cells when plated in the presence of VEGF (Vascular Endothelial Growth Factor) and basic fibroblast growth factor on a collagen matrix, a standard cord formation assay was used.

[16] = test system: ELC; assay: ELC MTT; type: cell-based; conditions: Table II; read-out: ELC MTT, Minimum Effective Concentration
[17] = Fasting blood glucose in mice; type: in vivo, male CD-1 mice; conditions: total dose 20 mg/kg i.v. (2 × 10 mg/kg), 30 min. after 2d dose
Procedure: To study the effect of steroid administrator or the NHE responsible for secretion of insulin, several of the aminosterols from shark liver were administered to fasting mice. Male CD-1 mice were assigned to one of four treatment groups. Whole blood glucose was tested using glucometer (Lifescan Glucometer II and One Touch test strips). Statistical analysis was via one-way analysis of variance (ANOVA) followed by subsequent Bonferonni's t-test.

[18] = test system: human coronary artery smooth muscle; assay: Growth of human coronary artery smooth muscle in vitro; type: cell-based; conditions: in vitro
Source text: Aminosterols of the invention may also have utility in inhibiting the growth factor mediated proliferation of smooth muscle within the artery. Following coronary angioplasty, reocclusion commonly occurs, secondary to reparative proliferation of the vascular smooth muscle within the wall of the surgically manipulated blood vessel. This process generally takes place over the course of 7-10 days. To evaluate whether an agent could prevent the growth factor mediated proliferation of smooth muscle within the artery, compound 1436 was evaluated in vitro for its effect on the proliferation of human coronary artery smooth muscle. Results for compound 1436 are shown in FIG. 13, and those for squalamine are shown in FIG. 14, with FIG. 15 being a composite logarithmic plot.

[19] = 20 μg applied, some vascular irritation noted
[20] = 40 μg applied, some vascular irritation noted

C[C@H](CCC(=O)O)[C@H]1CC[C@H]2[C@@H]3CC[C@H]4C[C@@H](NCCCNCCCCN)CC[C@]4(C)[C@H]3CC[C@]12C [Compound 319]
half-life [1]: about 14 minute
Potency as an NHE inhibitor compared with squalamine [2]: superior to squalamine
Tadpole assay, observed effects [3]: common vascular occlusive effect
Vitelline capillary regression ([4]; 0.001 μg applied): +/-
Vitelline capillary regression ([4]; 0.01 μg applied): +
Vitelline capillary regression ([4]; 0.1 μg applied): +
Vitelline capillary regression ([4]; 1 μg applied): +
Vitelline capillary regression ([4]; 10 μg applied): +
Control of B16 in C57B mice ([5]; compound 319, subcutaneous, intraperitoneal (FIG. 6 legend)): control of B16 in C57B mice to an extent almost comparable to squalamine

CC(C)[C@@H](CC[C@@H](C)[C@H]1CC[C@H]2[C@@H]3[C@H](O)C[C@H]4C[C@@H](NCCCNCCCCN)CC[C@]4(C)[C@H]3CC[C@]12C)OS(=O)(=O)O [Compound 1256]
Inhibition of human NHE1 [6]: no inhibitory activity; also recorded: lack of inhibition of human NHE1
Inhibition of rabbit NHE1 [7]: no inhibitory activity; also recorded: lack of inhibition of rabbit sodium/proton exchanger isoform 1 (NHE1)
Inhibition of NHE3 ([2]; 5 μg/ml squalamine, acid-preloaded and not acid-preloaded cells): inhibited NHE3 with respect to proton concentration at both Km and Vmax levels
Effect on resting pH ([2]; 5 μg/ml, not acid-preloaded): causes the cell to drop to a lower pH in its presence before activation of the pump occurs
NHE isoform specificity ([2]; NHE3 vs NHE1, listed as squalamine): inhibits NHE3, but not NHE1; also recorded: specificity for NHE3 over NHE1
Growth inhibition of fibroblasts [8]: no effect
Inhibition of neutrophil adherence [9]: no inhibition
Growth inhibition of bovine pulmonary endothelial cells (BPE) [10]: inhibited the growth of bovine pulmonary artery endothelial cells (BPE)
Inhibition of CAM vessel neovascularization ([11]; 3-day CAM, 0.65 μg): inhibition of CAM vessel neovascularization
Percentage positive, Assay 1 ([11]; 0.65 μg applied): 28%
Percentage positive, Assay 1 ([11]; 1.25 μg applied): 18%
Percentage positive, Assay 2 ([11]; 1.25 μg applied): 18%
Percentage positive, Mean ([11]; 1.25 μg applied): 18%
Percentage positive, Assay 1 ([11]; 2.5 μg applied): 35%
Percentage positive, Assay 2 ([11]; 2.5 μg applied): 18%
Percentage positive, Mean ([11]; 2.5 μg applied): 27%
Percentage positive, Assay 1 ([11]; 5.0 μg applied): 91%
Percentage positive, Assay 2 ([11]; 5.0 μg applied): 57%
Percentage positive, Mean ([11]; 5.0 μg applied): 74%
Percentage positive, Mean ([11]; 20 μg applied): 55%
Percentage positive, Assay 1 [11, 19]: 52%
Percentage positive, Assay 2 [11, 19]: 58%
Percentage positive, Mean ([11]; 40 μg applied): 32%
Percentage positive, Assay 1 [11, 20]: 50%
Percentage positive, Assay 2 [11, 20]: 13%
Percentage positive ([11]; 13-day embryo, 5.0 μg applied): 0/26
Inhibition of CAM vessel neovascularization ([11]; 13-day old chick, ten times that amount): no inhibitory effect
Tadpole E (epithelial) [12]: -
Tadpole GI (gastrointestinal) [12]: -
Tadpole M (melanocytes) [12]: -
Tadpole Mus (muscle) [12]: -
Tadpole V (vascular) [12]: +
Growth inhibition of epithelial cells [13]: no effect
Tadpole assay, observed effects [3]: Vascular occlusion in fine capillaries of tail; also recorded: No effect on vascular flow through hands or feet
Tadpole time to death [3]: ≤ 2 h
Tadpole assay, observed effects ([3]; listed as squalamine): blood flow through the capillaries of the tail shut down; also recorded: unaltered blood flow through the fine capillaries of the hands and feet; also recorded: common vascular occlusive effect
Tumor growth after cessation of treatment [14]: tumor growth continued at a rate similar to untreated controls
Suppression of growth of melanoma 1205Lu ([14]; 10, 20, 40 mg/kg/d, listed as Squalamine): suppress the growth of melanoma 1205Lu in RAG-1 mice in a dose-dependent fashion; also recorded: clear suppression of tumor growth in a dose-dependent fashion
Vitelline capillary regression ([4]; 0.001 μg applied): 0
Vitelline capillary regression ([4]; 0.01 μg applied): +
Vitelline capillary regression ([4]; 0.1 μg applied): +
Vitelline capillary regression ([4]; 1 μg applied): +
Vitelline capillary regression ([4]; 10 μg applied): +
Hemorrhage / hemolysis in chick embryo ([4]; 0.1 ml in 15% Ficol in PBS, listed as Squalamine): No hemorrhage was seen; also recorded: absence of hemolysis
Effect on chick embryo vessels ([4]; 3- to 5-day chick embryo): disrupt vitelline capillaries in 3- to 5-day chick embryos
Chick embryo diss. assay, Minimum Effective Concentration ([4]; Table II): 0.01 µg
Effect on cell viability or proliferation [15]: does not appear to profoundly affect cell viability or proliferation
minimal effective concentration [16]: 13.2 µg/mL
Fasting Blood Glucose Mean ± SEM [17]: 65 ± 7.3 mg/dL
Body weight and hematologic parameters ([5]; squalamine): no significant depression
Impact on tumor volume ([5]; squalamine 5 mg/kg/day): no significant impact on tumor volume
Tumor growth effect of single agent compared with combination ([5]; squalamine 15 mg/kg/day, compound 1436 alone in a tolerable schedule): Neither administration of squalamine at 15 mg/kg/day nor compound 1436 alone in a tolerable schedule could achieve this effect
Suppression of tumor volume ([5]; squalamine, subcutaneous, intraperitoneal or oral): dose-dependent suppression of tumor volume
Suppression of growth of human coronary artery smooth muscle [18]: suppress in vitro the growth of human coronary artery smooth muscle
